Measurements reported in ChEMBL document CHEMBL1154679, “Synthesis and biological evaluation of coumarin-based inhibitors of NAD(P)H: quinone oxidoreductase-1 (NQO1)” (J Med Chem, 2009).
pIC50: −log10 of the molar value.

Tests used:
[1] = target: T1, NAD(P)H dehydrogenase [quinone] 1 (Homo sapiens, UniProt P15559)
Description: Inhibition of human recombinant NQO1

[2] = target: T1, NAD(P)H dehydrogenase [quinone] 1; remark: listed apart in the source
Description: Inhibition of human recombinant NQO1 in presence of BSA

MIA PaCa-2 [3] = test: Cytotoxicity against human MIAPaCa2 cells assessed as reduction in cell number after 24 hrs by MTT assay; assay type: functional, cell-based; settings: MIA PaCa-2, 24 h
MIA PaCa-2 [4] = test: Cytotoxicity against human MIAPaCa2 cells assessed as reduction in cell number after 96 hrs by MTT assay; assay type: functional, cell-based; settings: MIA PaCa-2, 96 h
HCT-116 [5] = test: Cytotoxicity against human HCT116 cells assessed as reduction in cell number after 24 hrs by MTT assay; assay type: functional, cell-based; settings: HCT-116, 24 h
HCT-116 [6] = test: Cytotoxicity against human HCT116 cells assessed as reduction in cell number after 96 hrs by MTT assay; assay type: functional, cell-based; settings: HCT-116, 96 h

T1 sequence (P15559 whole entry): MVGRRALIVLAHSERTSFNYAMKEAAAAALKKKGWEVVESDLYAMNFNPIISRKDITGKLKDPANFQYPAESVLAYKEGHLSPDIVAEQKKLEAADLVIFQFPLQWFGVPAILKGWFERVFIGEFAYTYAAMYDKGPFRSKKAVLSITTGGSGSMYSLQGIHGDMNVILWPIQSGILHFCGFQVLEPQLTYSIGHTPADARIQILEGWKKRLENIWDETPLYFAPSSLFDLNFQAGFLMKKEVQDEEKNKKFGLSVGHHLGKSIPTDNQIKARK

Compound | pIC50 [1] | pIC50 [2] | pIC50 (MIA PaCa-2 [3]) | pIC50 (MIA PaCa-2 [4]) | pIC50 (HCT-116 [5]) | pIC50 (HCT-116 [6])
CCCC(c1c(O)c2ccccc2oc1=O)c1c(O)c2ccccc2oc1=O | 6.23 | 5.27 |  |  |  | 
O=c1oc2ccc(Cl)cc2c(O)c1Cc1c(O)c2cc(Cl)ccc2oc1=O | 8.05 | 5.20 |  |  |  | 
Cc1ccc2oc(=O)c(Cc3c(O)c4cc(C)ccc4oc3=O)c(O)c2c1 | 7.85 | 5.26 |  |  |  | 
COc1cccc2oc(=O)c(Cc3c(O)c4c(OC)cccc4oc3=O)c(O)c12 |  |  | 3.41 | 3.46 | < 3.40 | 4.10
Cc1ccc2c(O)c(Cc3c(O)c4ccc(C)c(C)c4oc3=O)c(=O)oc2c1C |  |  | 3.44 | 3.92 | 3.75 | 4.46
COc1ccc2oc(=O)c(Cc3c(O)c4cc(OC)ccc4oc3=O)c(O)c2c1 | 7.96 | 5.48 | 3.52 | 3.39 | 3.71 | 4.32
O=c1oc2ccccc2c(O)c1Cc1ccccc1 | 6.84 | 5.49 |  |  |  | 
Cc1cc2oc(=O)c(Cc3ccccc3)c(O)c2cc1C |  |  | < 3.40 | 3.57 | < 3.40 | 3.75
Cc1cc2oc(=O)c(Cc3c(O)c4cc(C)c(C)cc4oc3=O)c(O)c2cc1C |  |  | 3.67 | 3.97 | 3.70 | 4.46
COc1cc2oc(=O)c(Cc3c(O)c4cc(OC)c(OC)cc4oc3=O)c(O)c2cc1OC |  |  | < 3.40 | < 3.40 | < 3.40 | < 3.40
COc1ccc2c(O)c(Cc3c(O)c4ccc(OC)cc4oc3=O)c(=O)oc2c1 |  |  | 3.35 | 3.52 | < 3.40 | 3.73
Cc1cc2oc(=O)c(Cc3ccc4ccccc4c3)c(O)c2cc1C |  |  | 3.41 | 3.79 | 3.68 | 3.74
Cc1ccc(Cc2c(O)c3cc(C)c(C)cc3oc2=O)cc1C |  |  | < 3.40 | 3.39 | < 3.40 | 3.75
O=c1oc2ccccc2c(O)c1Cc1c(O)c2ccccc2oc1=O [DICUMAROL] |  |  | 4.05 | 4.28 | 3.99 | 4.72
Cc1cc2oc(=O)c(Cc3cccc4ccccc34)c(O)c2cc1C |  |  | < 3.40 | 3.73 | 3.80 | 4.25
